Results published in patent US20140316007A1 (RICHTER GEDEON NYRT., priority 2011, published 2014).
Like-named read-outs stand apart in the source and are kept apart here.

Tests used:
[1] = spontaneous horizontal motor activity of mice (LABORAS); format: in vivo; conditions: 12-hour light phase, C57B16J mice
Description: NMDA receptor antagonists are known to cause dose-dependent behavioral activation in rodents, which is manifested in increased locomotor activity (Sukhanov et al. Behav. Pharmacol. 15:263-271 2004). This behavior may correspond to side effects observed in the clinical practice, such as agitation and restlessness, which are rarely seen with memantine. We have studied the modulating effect of baclofen on the locomotor activity increasing effect of memantine when administered to mice in combination. Groups of male C57B16J mice (25-32 g; Wobe-Harlan, Hungary; 8-10 mice/group) were treated orally with 2 mg/kg baclofen, 2.5 mg/kg memantine or their combination or vehicle (distilled water) twice daily during the light phase of diurnal light-dark cycle. After one day of habituation, the activity of the animals was recorded continuously for 24 hours on the first and 14th day of treatment using an automated behavioral activity measurement system (LABORAS, Metris, Netherlands). However, only the data from the light phase (12 hours) are shown. The animals were housed individually during the whole experiment in their home cages, which enabled the activity recording as well. The mechanical vibrations and gravity related static signals evoked by the movement of the animals were transformed to an electrical signal by the system, and these recorded signals were evaluated off-line by a computer algorithm (Quinn et al. J. Neurosci. Methods 130:83-92 2003). The behavior of the mice was categorized by the software as locomotor activity, immobility, climbing and grooming. […] Statistical analysis was performed using ANOVA followed by Tukey's post hoc test. The statistical significance of effects of drug treatments was calculated compared to vehicle and also compared to other drug-treated groups.

[2] = mouse diet-induced obesity (DIO) test, weight loss; format: in vivo; conditions: two weeks, obese C57B16 mice
Description: The experiments were performed using a diet-induced obesity (DIO) test. The DIO test is a widely accepted animal model of human obesity well mimicking the development and course of the disease, its comorbidities as well as its response to pharmacological medications (Hariri and Thibault Nutr. Res. Rev. 23:270-299 2010). Young (22-25 g) male C57B16 mice were fed with high-fat diet (e.g. D12492, Research Diets Inc., New Brunswick, N.J., USA), thus these animals became obese compared to mice kept on a control diet. The body weights of control and obese mice were 31.84±0.89 and 45.74±0.78 g, respectively, in the first experiment (n=8 per group, mean±SEM). These values were 30.47±0.58 and 45.38±0.61 g (n=20 per group) in the second experiment, and 27.61±0.34 and 41.00±0.91 (n=8 per group) in the third experiment (Study 2). Then the animals were assigned to different groups and treated with different vehicles or test compounds. Test compounds were dissolved in water and administered per os twice daily in a volume of 10 ml/kg of body weight. The animals were weighed daily during the experiments. The percent weight loss of each animal compared the baseline body weight was calculated at the end of the two-week-long experiment. The average percent weight change of the vehicle group was subtracted from the percent weight change of each animal, thus the vehicle-corrected weight loss was calculated. The statistical evaluation of results included descriptive statistics (mean and standard error). Furthermore, statistical significance of differences between groups was evaluated using one-way or factorial ANOVA test followed by Duncan's post-hoc test. Interactions between different treatments (i.e. combination of drugs) were evaluated using factorial ANOVA test.
Baclofen caused a body weight loss of 3.2%, which was statistically non-significant. […] The doses shown in FIG. 1 were administered per os twice daily. The results are shown as mean±SE of percent vehicle-corrected weight loss. There were no statistical differences between the other three groups. (Number of animals: n=8 per group, except the memantine group, where n=7.)
We have also tested the combination of phentermine and baclofen. In the study investigating the effects of 2.5 mg/kg phentermine and 2 mg/kg baclofen, both drugs decreased the body weight moderately (by 5.4% and 3.6%, respectively). […] There was no significant difference between the groups (including the vehicle group as well). […] Data in FIG. 3 are presented as mean±SE of percent vehicle-corrected weight loss.

[3] = 30 mg/day, 12 weeks, cited from earlier work
rotarod test in mice = conditions: male, NMRI, mouse, in vivo, po
Description: The rotarod test is a widely used simple and objective method to detect the side effects affecting motor function in rodents. This method is also capable for sensitive detection of a central muscle relaxant effect, which is a pharmacological feature of both memantine and baclofen (Farkas et al. J. Pharmacol. Toxicol. Methods 52:264-273 2005). However, other CNS side effects (e.g. sleepiness, disturbances in coordination) also impair rotarod performance. Therefore this method was used to assess liability of the combination memantine and baclofen to produce unwanted side effects.
Mice were placed on a rod rotating with a constant speed of 12 rpm. After training, i.e. after habituation to the rotarod three times for 120 seconds on the previous day, the mice are usually able to run on the rod for 120 seconds without falling down. Immediately before the treatment with the test compounds, the mice were tested and only those able to stay on the rod for 120 seconds were involved to the experiment. Test compounds were dissolved in distilled water (vehicle) and administered orally to groups of ten male NMRI mice (20-24 g). One group was treated with vehicle in each experimental session. […] We calculated the mean latency to fall in each group and the percent change relative to the latency in the vehicle group. […]

[4] = targeted dose 60 mg/day, within 10 weeks, binge eating patients; cited from earlier work
[5] = cited from earlier work
[6] = recommended dosing regimen; cited from earlier work
[7] = dose gradually increased to 20 mg/day, 16 obese binge eater patients; cited from earlier work

## NCC(CC(=O)O)c1ccc(Cl)cc1 (racemic) [baclofen]
[1]; 2 mg/kg baclofen orally twice daily, 14th day of treatment
  horizontal motor activity vs vehicle: neither baclofen alone, nor the combination altered the motor activity
[1]; 2 mg/kg baclofen orally twice daily, first day of treatment
  horizontal motor activity vs vehicle: neither baclofen alone, nor the combination altered the motor activity
[2]; Study 1, first experiment, 2 mg/kg baclofen per os twice daily
  vehicle-corrected body weight loss: 3.2%
[2]; Study 2, 2 mg/kg baclofen per os twice daily
  vehicle-corrected body weight loss: 3.6%
[3]; 10 obese patients
  mean body weight loss: 1.7%
[3]
  participants (out of 10) who lost more than 5% body weight: one
Rotarod test in mice
  ED50 at 60 min: 18.3 ± 3.3 mg/kg
[4]
  mean body weight increase: 0.9 kg

## C[C@H]1CNCCc2ccc(Cl)cc21 [lorcaserin]
[5]; after 1-year-long treatment
  weight loss relative to baseline: 5.8%
[5]; at 12 weeks
  weight loss relative to baseline: 3.5-4%

## CC(C)(N)Cc1ccccc1 [phentermine]
[2]; Study 2, 2.5 mg/kg phentermine per os twice daily
  vehicle-corrected body weight loss: 5.4%

## CC12CC3CC(C)(C1)CC(N)(C3)C2 [memantine]
[1]; 2.5 mg/kg memantine orally twice daily, 14th day of treatment
  horizontal motor activity vs vehicle: statistically significantly (p<0.05) increased
[1]; 2.5 mg/kg memantine orally twice daily, first day of treatment
  horizontal motor activity vs vehicle: did not reach statistical significance
[6]
  side effect rate: dizziness: 0.8%
  side effect rate: nausea: 0.9%
  side effect rate: restlessness: 1.3%
  side effect rate: tiredness: 0.4%
[2]; Study 1, first experiment, 2.5 mg/kg memantine per os twice daily
  vehicle-corrected body weight loss: 0.1%
[7]
  effect on binge episodes and body weight: decreased the number of binge episodes but not the body weight
Rotarod test in mice
  ED50 at 60 min: 16.1 ± 1.7 mg/kg
